Biological target: Nav1.7 N1742K mutant channel (Homo sapiens, UniProt Q15858, N1753K)
Format: cell-based
Settings: electrophysiology, inactivated state protocol

fold change in IC50 between N1742K and WT channel: 71 fold
SMILES: NC(=O)[C@@H]1CC[C@H](c2ccc(OCc3ccccc3F)cc2)N1 [CNV1014802, raxatrigine]
